Measurements taken from patent US20060141546A1, “Bacterial test method by glycated label binding” (priority 2002, published 2006).

Legend:
bacteria [1] = assay: Effect of divalent cations on ALP binding to bacteria (Example 7, Table 5, FIG. 12); settings: for O.D. at 405 nm, With ALP: bacteria plus cation (CaCl2 1 mM, MgCl2 1 mM, ZnCl2 0.2 mM) with ALP; for O.D. at 405 nm, No ALP: bacteria plus cation (CaCl2 1 mM, MgCl2 1 mM, ZnCl2 0.2 mM)
Protocol: (§1) Bacterial cells (1 to 4.5×10^7 cells/mL) were washed twice with water after centrifugation to separate cells into a packed pellet from the supernatant liquid. The washed cells in pellet form were suspended in 20 μL of EPPS buffer (50 mM at pH 8.0) and 30 μL of water. […]
(§2) The mixture of glycated protein and bacterial cells was left at 25° C. for 15 minutes. The mixture was then centrifuged at 30,000 rpm for 30 minutes after which the bacterial cells formed a pellet at the bottom of the tube and were washed with water 4-5 times (50 μL). Centrifugation allows separation of glycoprotein bound to the bacteria cells from unbound glycated protein(s).
(§3) After washing, the bacterial pellets were suspended in 50 μL of borate buffer (25 mM at pH 9.0). A 5 μL aliquot of the suspension was assayed for detection of ALP binding by adding 5 μL of para-nitrophenol phosphate (PNPP, 100 mM), 50 μL sodium borate buffer (25 mM at pH 9.0) and 140 μL of water. […] The color was read at 405 nm using an ELISA plate reader between 15-30 min; the absorbance is directly proportional to the amount of ALP bound to the bacteria cell.

[2] = tested on: bacteria (Sf—Staph. faec.; Ec: E. coli); assay: Effect of various cations on ALP binding to bacteria (Example 8, FIGS. 13-14); settings: FIG. 13; for effect of various cations on ALP-binding (in words): cations 2 mM, bovine intestinal mucosa ALP
Protocol: as §1
The mixture of glycated protein and bacterial cells was left at 25° C. for 15 minutes. The mixture was then centrifuged at 30,000 rpm for 30 minutes after which the bacterial cells formed a pellet at the bottom of the tube and was washed with water 4-5 times (50 μL). Centrifugation allows separation of glycoprotein bound to the bacteria cells from unbound glycated protein(s).
as §3

E. coli [3] = assay: ALP binding to bacteria in presence of carbohydrates, polysaccharides, glycopeptides and lectins (Example 5, Table 3); settings: ALP 100 mUnits plus 15 μg of additive
Protocol: (§4) Bacterial cells (1 to 4.5×10^7 cells/mL) were washed twice with water after centrifugation to separate cells into a packed pellet from the supernatant liquid. The washed cells in pellet form were suspended in 20 μl of EPPS buffer (50 mM at pH 8.0) and 30 μL of water. Hemoglobin (20 μg) was added as a blocking additive. Alkaline phosphatase (ALP) (100 mUnits) from bovine intestine and 15 μg of simple carbohydrates or proteoglycan or lectins, were added.
as §2
(§5) After washing, the bacterial pellets were suspended in 50 μL of sodium tetraborate buffer (25 mM at pH 9.5). A 5 uL aliquot of the suspension was assayed for detection of ALP binding by adding 5 μL of para-nitrophenol phosphate (PNPP, 100 mM), 50 μL sodium borate buffer (25 mM at pH 9.0) and 140 μL of water. […] The color is read at 405 nm using a ELISA plate reader between 15-30 min and the absorbance is directly proportional to the amount of ALP bound to the bacteria cell adhesions for glycated groups.

S. faec. [4] = assay: as above; settings: ALP 100 mUnits plus 15 μg of additive
Protocol: as §4, §2, §5

E. coli [5] = assay: Competitive inhibition of ALP binding to bacteria by added protein (Example 3, Table 2); settings: protein 2-40 μg added with ALP 2 μg
Protocol: (§6) Less than 20% was no inhibition (NI) and greater than 90% was complete inhibition (CI) with a binding constant great than ALP.
(§7) Bacterial cells (1 to 4.5×10^7 cells/mL) were washed twice with water after centrifugation to separate cells into a packed pellet from the supernatant liquid. The washed cells in pellet form were suspended in 20 ul of N-2-hydroxyethyl piperazine-N′-[3-propane sulfonic acid] EPPS buffer (50 mM at pH 8.0) and 30 μL of water. Glycated protein(s) (2-40 μg) were added. In some cases a glycated protein (2-40 μg) and bovine intestinal alkaline phosphatase (ALP) (2 μg or […]) were added and the binding of the glycated protein measured by the reduction of binding of ALP.
as §2
(§8) After washing, the bacterial pellets were suspended in 50 μL of borate buffer (25 mM at pH 9.0). A 5 μL aliquot of the suspension was assayed for detection of ALP binding by adding 5 μL of para-nitrophenol phosphate (PNPP, 100 mM), 50 μL sodium borate buffer (25 mM at pH 9.0) and 140 μL of water. […] The color is read at 405 nm using a ELISA plate reader between 15-30 min. The absorbance is directly proportional to the amount of ALP bound to the bacteria cell adhesions for glycated groups.
(§9) Only a protein binding to the cell adhesions for glycated groups causes the inhibition of the binding of ALP by bacteria. A protein binding to the cell adhesions for glycated groups provides a positive number in Table 2.

S. faec. [6] = assay: as above; settings: protein 2-40 μg added with ALP 2 μg
Protocol: as §6, §7, §2, §8, §9

bacteria [7] = assay: Competitive inhibition of ALP binding to bacteria (Example 3); settings: for binding to bacteria compared with ALP: from complete inhibition of ALP binding
Protocol: as §6, §7, §2, §8, §9

Molecule: [Ca+2].[Cl-].[Cl-] [CaCl2]
- O.D. at 405 nm, With ALP (bacteria [1]): 0.36 O.D.
- O.D. at 405 nm, No ALP (bacteria [1]): 0.23 O.D.

Molecule: [Co+2] [Co^+2]
- effect of various cations on ALP-binding (in words) [2]: stimulate ALP-binding

Molecule: [Cu+2] [Cu^2+]
- effect of various cations on ALP-binding (in words) [2]: stimulate ALP-binding

Molecule: O=C(O)CN(CCN(CC(=O)O)CC(=O)O)CC(=O)O [EDTA, reference compound]
- ALP activity in the presence of EDTA ([2]; EDTA 10 mM): total inhibition

Molecule: [Fe+2] [Fe^2+]
- effect of various cations on ALP-binding (in words) [2]: stimulate ALP-binding

Molecule: C[C@H](O)[C@@H](O)[C@@H](O)[C@H](O)C=O [Fucose]
- absorbance (405 nm) of ALP bound to bacteria (E. coli [3]): 2.0
- absorbance (405 nm) of ALP bound to bacteria (S. faec. [4]): 2.3

Molecule: CC(=O)N[C@@H]1[C@@H](O)[C@@H](O)[C@@H](CO)O[C@H]1O [GalNAc, N-Acetyl-β-D-Galactosamine]
- absorbance (405 nm) of ALP bound to bacteria (E. coli [3]): 1.8
- absorbance (405 nm) of ALP bound to bacteria (S. faec. [4]): 1.9

Molecule: CC(=O)N[C@@H]1[C@@H](O)[C@H](O)[C@@H](CO)O[C@H]1O [GlcNAc, N-Acetyl-β-D-Glucosamine]
- absorbance (405 nm) of ALP bound to bacteria (E. coli [3]): 2.0
- absorbance (405 nm) of ALP bound to bacteria (S. faec. [4]): 2.0

Molecule: O=C[C@H](O)[C@@H](O)[C@H](O)[C@H](O)C(=O)O [Glucuronic acid]
- absorbance (405 nm) of ALP bound to bacteria (E. coli [3]): 1.9
- absorbance (405 nm) of ALP bound to bacteria (S. faec. [4]): 2.0

Molecule: O=C[C@@H](O)[C@H](O)[C@@H](O)[C@H](O)C(=O)O [Iduronic acid]
- absorbance (405 nm) of ALP bound to bacteria (E. coli [3]): 1.9
- absorbance (405 nm) of ALP bound to bacteria (S. faec. [4]): 2.0

Molecule: [Cl-].[Cl-].[Mg+2] [MgCl2]
- O.D. at 405 nm, With ALP (bacteria [1]): 0.44 O.D.
- O.D. at 405 nm, No ALP (bacteria [1]): 0.20 O.D.

Molecule: C[C@@H](O[C@H]1[C@H](O)[C@@H](CO)OC(O)[C@@H]1N)C(=O)O (stereo partly shown) [Muramic Acid]
- absorbance (405 nm) of ALP bound to bacteria (E. coli [3]): 1.8
- absorbance (405 nm) of ALP bound to bacteria (S. faec. [4]): 2.1

Molecule: Chondroitin sulfate A
- absorbance (405 nm) of ALP bound to bacteria (E. coli [3]): 1.1
- absorbance (405 nm) of ALP bound to bacteria (S. faec. [4]): 1.3

Molecule: Chondroitin sulfate B
- absorbance (405 nm) of ALP bound to bacteria (E. coli [3]): 0.9
- absorbance (405 nm) of ALP bound to bacteria (S. faec. [4]): 0.5

Molecule: Concanavalin A
- absorbance (405 nm) of ALP bound to bacteria (E. coli [3]): 0.0
- absorbance (405 nm) of ALP bound to bacteria (S. faec. [4]): 0.1

Molecule: Hemoglobin [reference compound]
- inhibition of the binding of ALP by bacteria (E. coli [5]): <20%
- inhibition of the binding of ALP by bacteria (S. faec. [6]): <20%
- inhibition of the binding of ALP by bacteria (in words) (bacteria [7]): did not inhibit the binding of ALP

Molecule: Hyaluronic Acid
- absorbance (405 nm) of ALP bound to bacteria (E. coli [3]): 1.8
- absorbance (405 nm) of ALP bound to bacteria (S. faec. [4]): 2.0

Molecule: Tamm-Horsfall protein (THP): glycated protein with one high-mannose and five complex or hybrid type chains
- inhibition of the binding of ALP by bacteria (E. coli [5]): 40%
- inhibition of the binding of ALP by bacteria (S. faec. [6]): 49%

Molecule: Transferrin: glycated protein, simple carbohydrates
- inhibition of the binding of ALP by bacteria (E. coli [5]): 75%
- inhibition of the binding of ALP by bacteria (S. faec. [6]): 75%

Molecule: polyarginine [reference compound]
- inhibition of the binding of ALP by bacteria (in words) (bacteria [7]): not found to inhibit ALP activity

Molecule: polyhistidine [reference compound]
- inhibition of the binding of ALP by bacteria (in words) (bacteria [7]): not found to inhibit ALP activity

Molecule: polylysine [reference compound]
- inhibition of the binding of ALP by bacteria (in words) (bacteria [7]): not found to inhibit ALP activity

Molecule: α-1-Antitrypsin: glycated protein as received from suppliers
- inhibition of the binding of ALP by bacteria (E. coli [5]): 84%
- inhibition of the binding of ALP by bacteria (S. faec. [6]): 74%

Molecule: α-1-glycoprotein (AGP): glycated protein with five complex or hybrid type chains
- inhibition of the binding of ALP by bacteria (E. coli [5]): 86%
- inhibition of the binding of ALP by bacteria (S. faec. [6]): >90%
- binding to bacteria compared with ALP (bacteria [7]): better binders than ALP

B1: Myoglobin: non-glycated protein as received from suppliers (protein, UniProt P02144 2-154, looked up)
Myoglobin: GLSDGEWQLVLNVWGKVEADIPGHGQEVLIRLFKGHPETLEKFDKFKHLKSEDEMKASEDLKKHGATVLTALGGILKKKGHHEAEIKPLAQSHATKHKIPVKYLEFISECIIQVLQSKHPGDFGADAQGAMNKALELFRKDMASNYKELGFQG
- inhibition of the binding of ALP by bacteria (E. coli [5]): <20%
- inhibition of the binding of ALP by bacteria (S. faec. [6]): <20%
- inhibition of the binding of ALP by bacteria (in words) (bacteria [7]): did not inhibit the binding of ALP

B2: Uristatin: urinary trypsin inhibitor lacking the O-linked glycoconjugate chain (protein, UniProt P02760 206-352, looked up)
Inter-alpha-trypsin inhibitor …: AVLPQEEEGSGGGQLVTEVTKKEDSCQLGYSAGPCMGMTSRYFYNGTSMACETFQYGGCMGNGNNFVTEKECLQTCRTVAACNLPIVRGPCRAFIQLWAFDAVKGKCVLFPYGGCQGNGNKFYSEKECREYCGVPGDGDEELLRFSN
modifications: Inter-alpha-trypsin inhibitor light chain lacks O-linked glycan chain
- inhibition of the binding of ALP by bacteria (E. coli [5]): >90%
- inhibition of the binding of ALP by bacteria (S. faec. [6]): >90%
- effect of fragmentation of the peptide chain on inhibition of ALP binding (bacteria [7]; fragmentation with protease): did not impact the inhibition
- binding to bacteria compared with ALP (bacteria [7]): better binders than ALP

B3: Bikunin: urinary trypsin inhibitor with two glycoconjugate chains and two Kunitz inhibitor domains (protein, UniProt P02760 206-352, looked up)
Inter-alpha-trypsin inhibitor …: B2 Inter-alpha-trypsin inhibitor …
modifications: Inter-alpha-trypsin inhibitor light chain
- inhibition of the binding of ALP by bacteria (E. coli [5]): >90%
- inhibition of the binding of ALP by bacteria (S. faec. [6]): >90%
- binding to bacteria compared with ALP (bacteria [7]): better binders than ALP

B4: beta-2-Glycoprotein: glycoprotein with one N-link complex type chain (protein, UniProt P02749 20-345, looked up)
Beta-2-glycoprotein 1: GRTCPKPDDLPFSTVVPLKTFYEPGEEITYSCKPGYVSRGGMRKFICPLTGLWPINTLKCTPRVCPFAGILENGAVRYTTFEYPNTISFSCNTGFYLNGADSAKCTEEGKWSPELPVCAPIICPPPSIPTFATLRVYKPSAGNNSLYRDTAVFECLPQHAMFGNDTITCTTHGNWTKLPECREVKCPFPSRPDNGFVNYPAKPTLYYKDKATFGCHDGYSLDGPEEIECTKLGNWSAMPSCKASCKVPVKKATVVYQGERVKIQEKFKNGMLHGDKVSFFCKNKEKKCSYTEDAQCIDGTIEVPKCFKEHSSLAFWKTDASDVKPC
- inhibition of the binding of ALP by bacteria (E. coli [5]): 74%
- inhibition of the binding of ALP by bacteria (S. faec. [6]): 61%
